For this assay, the system named is THP-1 viability, CellTiter-Glo luminescence, 72 h. Nature of the assay: PubChem AID 2252.

Several values for one entry are separate records, joined by “and”; a condition that tells them apart may be missing. Equal entries are not always repeated.

For `COc1cccc2[nH]c3c(N4CCN(Cc5ccc6c(c5)OCO6)CC4)ncnc3c12`, the EC50 (usually the midpoint of the concentration-response curve) was 42.2 µM.
The result for `COc1ccc(/C=N/Nc2cc(C)nc3ccccc23)cc1` reads 7.03 µM; that for `O=[N+]([O-])c1cc(O)c2ncccc2c1`, 5.78 µM.
For `CC1(C)CC(N2CCN(c3ccccc3)CC2)=CC(=[N+]2CCCC2)C1` the value was 8.86 µM.
For `CCCCCCCCCCOC(=O)Cn1c(COc2ccc(OC)cc2)[n+](C)c2ccccc21` the value was 4.04 µM and 2.21 µM.
For `Cc1ccc(Nc2nc(N)c3ccccc3n2)cc1Cl`, the 50% effective concentration (EC50) is 13.7 µM.
As to `O=C(N/N=C/c1ccc([N+](=O)[O-])o1)C(O)c1ccccc1` (configuration not stated), the concentration for a half-maximal effect (EC50) is 17.9 µM.
The result for `O=C(Nc1nc(-c2ccccn2)cs1)c1ccc(Cl)s1` reads 0.84 µM; that for `COc1ccc2nc(N(CCN(C)C)C(=O)/C=C/c3cccs3)sc2c1`, 16.1 µM.
Consider `COc1cccc(/C=C/C(=O)c2cccc([N+](=O)[O-])c2)c1OC`, for which the EC50 is 22.3 µM.
`CCCCC(=O)NNC(=S)NC(=O)CCC`: the EC50 was 46 µM.
The result for `N=c1c2c(-c3ccccc3)c(-c3ccccc3)n(Cc3ccco3)c2ncn1CCCn1ccnc1` reads 7.71 µM.
For `O=C(N/N=C/c1cccc(OCc2ccccc2)c1)c1cccs1` the value was 40.4 µM; for `Cc1ccc(Nc2cc(C)c3c(O)cccc3n2)cc1C`, 23.8 µM; for `Cc1cc2oc(=O)cc(CN3CCN(C/C=C/c4ccccc4)CC3)c2cc1O`, 18.6 µM.
The result for `O=[N+]([O-])c1ccc(O)c2ncccc12` reads 5.99 µM.
As for `COc1cccc(-c2nnc(NC(=O)c3ccc(Cl)s3)o2)c1`, the EC50 was 15 µM.
The result for `Cc1cc(N2CCC(C)CC2)nc2cccc(O)c12` reads 26.4 µM; that for `Cc1ccc(Cn2c(=N)n(CC(O)COc3ccccc3)c3ccccc32)cc1` (configuration not stated), 6.08 µM.
The result for `O=C(/C=C/c1cc(Br)ccc1O)c1ccco1` reads 8.79 µM; that for `CC1CCN(c2nc3ccc(C(=O)NCCCN4CCCCC4)cc3s2)CC1`, 30.7 µM.
For `O=C(C[n+]1cnn(CC(=O)c2ccc(Cl)cc2Cl)c1)c1ccc([N+](=O)[O-])cc1` the value was 26.4 µM.
For the compound `COc1cc2c(cc1OC)[C@H](Cc1ccc(O)cc1)NCC2`, the concentration giving a half-maximal response (EC50) is 23.4 µM.
For `COc1cc(CNCCO)cc(Cl)c1OCc1ccc(Cl)cc1Cl` the value was 10.8 µM; for `O=C(Nc1c2ccccc2nc2ccccc12)C(Cl)(Cl)Cl`, 20 µM; for `OC(CNCCc1ccc(Cl)cc1Cl)COc1ccccc1` (configuration not stated), 29.2 µM.
As for `Cc1ccc(-c2c[n+](CC(=O)Nc3nc(-c4ccccc4)cs3)c3n2CCC3)cc1`, the EC50 was 13.5 µM.
For `CCOC(=O)c1c(CSC(=N)N)n(C)c2cc(Br)c(OC(C)=O)cc12` the value was 16.9 µM; for `CCCCNC(=S)Nc1ccc([N+](=O)[O-])cc1`, 28.8 µM.
Regarding `Cc1cc(C)nc(/N=C(\N)Nc2ccc(SC(F)F)cc2)n1`, the EC50 is 12.8 µM.
Take `Cc1c(CCOC(=O)C2C3CC4CC(C3)CC2C4)sc[n+]1CC(=O)c1ccc(Br)cc1` (configuration not stated): the EC50 is 6.34 µM.
For `C#CCOCCOCCOCCNc1nc(N2CCN(C(=O)CCCCCCCCCCNC(=O)[C@H]([C@@H](C)CC)n3cc(CCCCN=C(N)N)nn3)CC2)nc(N2CCN(C(=O)CCCCCCCCCCNC(=O)[C@H](CCCCN)n3cc(C)nn3)CC2)n1` the value was 3.57 µM.
For `C1=C(CCNc2ncnc3c2[nH]c2ccccc23)CCCC1` the value was 5.45 µM; for `C#CCOCCOCCOCCNc1nc(N2CCN(C(=O)CCCCCCCCCCNC(=O)[C@H]([C@@H](C)CC)n3cc(CCCCCN)nn3)CC2)nc(N2CCN(C(=O)CCCCCCCCCCNC(=O)[C@H]([C@@H](C)CC)n3cc(CCCCN=C(N)N)nn3)CC2)n1`, 5.17 µM.
Take `Cc1c(CN(C)C)c2c(n1Cc1ccccc1)C(=O)c1ccc(Br)cc1-2`: the concentration for a half-maximal effect (EC50) is 21.1 µM.
The result for `Cc1[nH]cnc1C(=O)N/N=C/c1ccc([N+](=O)[O-])s1` reads 13.3 µM; that for `CC(C)[C@@H]1CC[C@@H](C)C[C@H]1OC(=O)C[n+]1cc(-c2ccc(Cl)cc2)n2c1CCCCC2`, 2.19 µM.
The result for `COc1ccc(CSCCN)cc1Cl` reads 44.9 µM.
Regarding `C#CCOCCOCCOCCNc1nc(N2CCN(C(=O)CCCCCCCCCCNC(=O)[C@@H](CCSC)n3cc(CCO)nn3)CC2)nc(N2CCN(C(=O)CCCCCCCCCCNC(=O)[C@H]([C@@H](C)CC)n3cc(CCCCCN)nn3)CC2)n1`, the concentration for a half-maximal effect (EC50) is 12.9 µM.
For `Oc1[nH]c2ccccc2c1N=NC(=S)N1CCOCC1` the value was 2.48 µM.
The result for `Cn1ncnc2c(=O)n(C)c(=O)nc1-2` reads 1.38 µM; that for `O=C(CC1NCCc2ccccc21)Nc1ccc(Oc2ccccc2)cc1` (configuration not stated), 14.3 µM; that for `C#CCOCCOCCOCCNc1nc(N2CCN(C(=O)CCCCCCCCCCNC(=O)[C@H](CCCCN)n3cc(C)nn3)CC2)nc(N2CCN(C(=O)CCCCCCCCCCNC(=O)[C@H](CO)n3cc(CCCSC)nn3)CC2)n1`, 10.4 µM.
For `CCCCNCCCOc1cccc(Cl)c1Cl` the value was 28.2 µM.
For `C#CCOCCOCCOCCNc1nc(N2CCN(C(=O)CCCCCCCCCCNC(=O)[C@H](CCCCN)n3cc(C[C@@H](C)CC)nn3)CC2)nc(N2CCN(C(=O)CCCCCCCCCCNC(=O)[C@@H]([C@H](C)O)n3cc(C)nn3)CC2)n1`, the EC50 is 6.17 µM.
The result for `CSc1ccc2c(c1)N(CCC1CCCCN1C)c1ccccc1S2` (configuration not stated) reads 13 µM; that for `CC(C)(C)c1ccc(OCCCCCCN2CCNCC2)cc1`, 13.8 µM.
As to `O=C(NC(=S)NNC(=O)c1cnccn1)c1ccc(F)cc1`, the EC50 was 5.51 µM.
For `COc1ccc(Nc2cc(C)c3c(O)cccc3n2)cc1` the value was 8.86 µM; for `OCCN1CCN(CCCN2c3ccccc3Sc3ccc(Cl)cc32)CC1`, 12.5 µM; for `CN1CCN(C2=Cc3ccccc3Sc3cc(F)c(Cl)cc32)CC1`, 18.2 µM.
The result for `CS(=O)(=O)c1ccc([C@@H](O)[C@@H](CF)NC(=O)C(Cl)Cl)cc1` reads below 0.1 µM; that for `Cc1nc2ccccc2c(N)c1C(=O)/C=C/c1ccccc1`, 3.11 µM.
The result for `COc1cccc(/C=N/NC(=O)CNC(=O)CCc2ccccc2)c1O` reads 21.7 µM; that for `c1ccc2c(c1)CCN(c1nc3ccccc3n3cnnc13)C2`, 24.8 µM; that for `Cc1cccc2c1Sc1ccc(Cl)cc1CC2N1CCNCC1` (configuration not stated), 6.59 µM.
`O=C(N/N=C/c1ccc([N+](=O)[O-])o1)C1CCCC1`: the EC50 is below 0.1 µM.
Consider `O=C(N/N=C/c1cc([N+](=O)[O-])ccc1O)C1CC1`, for which the EC50 was 27.7 µM.
For `O=C(CC(=O)c1ccccc1O)c1cccc(F)c1` the value was 26.2 µM; for `CC(C)(c1ccccc1)c1ccc(OCCCNCCO)cc1`, 16.6 µM.
For `N#C/C(=C\c1ccc(O)c(O)c1)C(=O)c1ccc(O)c(O)c1` the value was 39.1 µM; for `O=c1c2ccccc2nc(COc2ccccc2)n1/N=C/c1ccc(O)cc1O`, 1.46 µM; for `Cc1ccc(NC(=O)COc2ccccc2CNC(C)(C)CC(C)(C)C)cc1`, 9.23 µM.
The result for `O=C(N/N=C/c1c[nH]c2ccccc12)c1cc2ccccc2o1` reads 21.3 µM; that for `CCn1cc(C(=O)O)c(=O)c2cc(F)c(N3CCN(C(=S)NC(=O)c4cccc(C)c4)CC3)cc21`, below 0.1 µM.
For the compound `O=C(NC(=C(Cl)Cl)S(=O)(=O)c1ccc(Cl)cc1)c1ccccc1`, the EC50 was 23.2 µM.
On to `CC(C)(C)c1ccc(NC(=O)NCc2ccco2)cc1`, for which the EC50 is 13.3 µM.

Values taken from PubChem BioAssay AID2252 (Southern Research Specialized Biocontainment Screening …, 2010).
